Numbers after ± are expanded uncertainties.
Experiment: xn = mol fraction of the nth substance listed
Details: 101 kPa, Liquid, x2 = 0; for viscosity: Falling or rolling sphere viscometry; for mass density: Vibrating tube method

O [water] + CC[n+]1ccccc1.[Br-]
Details	mass density [kg/m3]	viscosity [mPa·s]
298.15 K	–	0.89 ± 0.054
303.15 K	–	0.797 ± 0.048
308.15 K	–	0.719 ± 0.043
313.15 K	–	0.653 ± 0.039
318.15 K	990.1 ± 0.2	0.596 ± 0.036
323.15 K	987.9 ± 0.2	0.547 ± 0.033
328.15 K	985.6 ± 0.2	0.504 ± 0.03
333.15 K	983.2 ± 0.2	0.466 ± 0.028
338.15 K	980.3 ± 0.2	0.433 ± 0.026
343.15 K	978.1 ± 0.2	0.404 ± 0.024
348.15 K	974.8 ± 0.2	0.378 ± 0.023

From the NIST ThermoML archive (doi:10.1016/j.fluid.2019.05.003)
